Where a SMILES comes first, the peptide text is derived from it. Bridges are numbered along the chain shown (N, C = ends).
Assay: Complete redox cycle after DTT reduction: reoxidation by dissolved O2 and precipitation, 1H NMR
Type: physicochemical
Conditions: twofold excess of DTT, pH 7, 15 °C, sealed NMR tube
Method: Incomplete conversion, despite the presence of a large excess of the RA, provided evidence for the reoxidation of the reduced SS bond of the studied model systems. To study this process in detail, the in situ reoxidation of the DTT‐reduced protein samples at […] in sealed NMR tubes (pH 7, 15 °C, twofold excess of DTT) was monitored for several weeks.
Figure 8 The 50‐membered structure ensembles of A) E11_SS⇄E11_2SH and B) E5_SS⇄E5_2SH. The fold of E11_2SH is more compact than that of E5_2SH, which has more “open” conformers, in which the Cys residues are far from each other. This allows intermolecular, rather than intramolecular, reoxidation. The dissolved oxidized and reduced protein concentrations of C) E11_SS⇄E11_2 SH and D) E5_SS⇄E5_2SH (oxidized: blue; reduced: green) as a function of time. […] E) Estimated parameters of the complete redox cycles. […] Figure S11 contains all data for parameter estimation of E11_SS, E5_SS, and E2_SS. […]
Reoxidation can take place both intra‐ and intermolecularly. […] According to our semiquantitative analysis based on the recorded ^1H NMR spectra, the integral changes of the Trp Hϵ1 resonances both in the oxidized and reduced forms of the protein during reduction with DTT show a decrease in concentration over the observed period of redox time for both E2_SS and E5_SS. […]

CC[C@H](C)[C@@H]1NC(=O)[C@H](Cc2ccc(O)cc2)NC(=O)[C@H](CC(C)C)NC(=O)[C@H](CCCNC(=N)N)NC(=O)[C@H](C(C)C)NC(=O)[C@@H](NC(=O)[C@H](CCC(=O)O)NC(=O)[C@H](CCC(=O)O)NC(=O)[C@H](CCC(=O)O)NC(=O)[C@H](CCSC)NC(=O)[C@H](CCC(N)=O)NC(=O)[C@H](CCCCN)NC(=O)[C@H](CO)NC(=O)[C@H](CC(C)C)NC(=O)[C@@H](N)CC(=O)O)CSSC[C@@H](C(=O)O)NC(=O)[C@@H]2CCCN2C(=O)[C@@H]2CCCN2C(=O)[C@@H]2CCCN2C(=O)[C@H](CCCNC(=N)N)NC(=O)CNC(=O)[C@H](CO)NC(=O)[C@H](CO)NC(=O)[C@@H]2CCCN2C(=O)CNC(=O)CNC(=O)[C@H](CC(=O)O)NC(=O)[C@H](CCCCN)NC(=O)[C@H](CC(C)C)NC(=O)[C@H](Cc2c[nH]c3ccccc23)NC(=O)[C@H](CCC(N)=O)NC1=O [E11_SS] (H-DLSKQMEEECVRLYIQWLKDGGPSSGRPPPC-OH; disulfide 10-31)
decrease of the initial dissolved protein concentration at the end of a complete redox cycle: remained the same

CC[C@H](C)[C@@H]1NC(=O)[C@H](Cc2ccc(O)cc2)NC(=O)[C@H](CC(C)C)NC(=O)[C@H](CCCNC(=N)N)NC(=O)[C@H](C(C)C)NC(=O)[C@@H](NC(=O)[C@H](CCC(=O)O)NC(=O)[C@H](CCC(=O)O)NC(=O)[C@@H](N)CCC(=O)O)CSSC[C@@H](C(=O)O)NC(=O)[C@@H]2CCCN2C(=O)[C@@H]2CCCN2C(=O)[C@@H]2CCCN2C(=O)[C@H](CCCNC(=N)N)NC(=O)CNC(=O)[C@H](CO)NC(=O)[C@H](CO)NC(=O)[C@@H]2CCCN2C(=O)CNC(=O)CNC(=O)[C@H](CC(=O)O)NC(=O)[C@H](CCCCN)NC(=O)[C@H](CC(C)C)NC(=O)[C@H](Cc2c[nH]c3ccccc23)NC(=O)[C@H](CCC(N)=O)NC1=O [E5_SS] (H-EEECVRLYIQWLKDGGPSSGRPPPC-OH; disulfide 4-25)
decrease of the initial dissolved protein concentration at the end of a complete redox cycle: 68%
